Several values for one entry are separate records, joined by “and”; a condition that tells them apart may be missing. Equal values may be shown once. Activity calls are given as the source filed them.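 How the source made its calls: active means rising-signal curve whose EC50 is at most tenfold above the top concentration tested; inconclusive means flat fit with activity between 30% and 70%, or invalid fit; inactive means the rest.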
What follows are compounds tested on S. cerevisiae SKY197-pL101 polyadenylation reporter, beta-gal luminescence, 9 h (assay: yeast polyadenylation reporter signal increase, dose response, polyadenylation inhibitor project, S. cerevisiae SKY197-pL101, beta-gal luminescence (AID 2683)).
In the case of `N#C/C(=C\c1cccc([N+](=O)[O-])c1)c1nc2ccccc2[nH]1`, the EC50 is reported as > 12 µM (inactive). With `N#C/C(=C\c1ccco1)c1nc2ccccc2[nH]1` the EC50 was > 12 µM (inactive). For `Cc1ccc2nc(/C(C#N)=C/c3ccc(C)o3)[nH]c2c1`, the EC50 was > 12 µM (inactive). An EC50 of 8.25 µM was found for `N#C/C(=C/c1ccc([N+](=O)[O-])o1)c1nc2ccccc2[nH]1` in this work. An EC50 of 5.83 µM was found for `Cc1cccc2[nH]c(/C(C#N)=C/c3ccc([N+](=O)[O-])o3)nc12` in this work. An EC50 of 10.8 µM was found for `N#C/C(=C\c1ccc([N+](=O)[O-])o1)c1nc2ccccc2[nH]1` in this work. For `Cc1ccc2nc(/C(C#N)=C/c3ccc([N+](=O)[O-])o3)[nH]c2c1`, the EC50 was 6.5 µM and 7.25 µM.

Source: PubChem BioAssay AID2683 (Broad Institute, 2010)
